In PubChem BioAssay AID1671224:

Biological target: Tyrosine-protein kinase BTK (Homo sapiens) (UniProt Q06187)
Assay: inhibitors of human BTK tyrosine kinase activity – biochemical, Z'-LYTE, FRET readout, direct format, dose response (AID 1671224)
Conditions: recombinant BTK, Z'-LYTE FRET peptide phosphorylation

Chain of Tyrosine-protein kinase BTK (Homo sapiens) (Q06187 whole entry, looked up): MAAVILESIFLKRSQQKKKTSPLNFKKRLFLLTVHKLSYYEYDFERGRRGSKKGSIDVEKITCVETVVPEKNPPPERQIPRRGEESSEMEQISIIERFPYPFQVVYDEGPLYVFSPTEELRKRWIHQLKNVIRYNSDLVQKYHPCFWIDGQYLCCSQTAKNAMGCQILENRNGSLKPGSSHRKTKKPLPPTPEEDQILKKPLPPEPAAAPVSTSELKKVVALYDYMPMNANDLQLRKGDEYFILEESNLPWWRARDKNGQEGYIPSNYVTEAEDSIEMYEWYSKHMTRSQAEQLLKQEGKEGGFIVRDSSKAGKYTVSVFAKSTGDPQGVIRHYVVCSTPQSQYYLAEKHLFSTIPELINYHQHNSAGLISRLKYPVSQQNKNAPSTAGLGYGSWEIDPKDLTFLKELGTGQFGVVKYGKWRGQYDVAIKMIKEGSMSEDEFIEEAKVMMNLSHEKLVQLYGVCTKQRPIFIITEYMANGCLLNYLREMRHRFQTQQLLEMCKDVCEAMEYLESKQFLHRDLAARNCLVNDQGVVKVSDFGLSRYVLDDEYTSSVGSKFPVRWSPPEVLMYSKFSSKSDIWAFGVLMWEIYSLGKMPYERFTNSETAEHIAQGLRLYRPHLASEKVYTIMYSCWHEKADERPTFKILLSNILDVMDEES

Question: With `COc1cc2ncnc(Nc3cccc(Cl)c3)c2cc1OC` as the molecule, how does the IC50 read?
Answer: 3.61 µM
